Assay results: publication PMC11092195, “Selective Detection of Active Extracellular Granzyme A by Using a Novel Fluorescent Immunoprobe with Application to Inflammatory Diseases” (ACS Pharmacology & Translational Science, 2024)
Where a name gives a salt, the structure may show the parent alone.

Target: T1, hGzmK (human GzmK) (Homo sapiens, UniProt P49863)
T1 construct: commercial, Enzo Life Sciences
T1 sequence (P49863 27-264): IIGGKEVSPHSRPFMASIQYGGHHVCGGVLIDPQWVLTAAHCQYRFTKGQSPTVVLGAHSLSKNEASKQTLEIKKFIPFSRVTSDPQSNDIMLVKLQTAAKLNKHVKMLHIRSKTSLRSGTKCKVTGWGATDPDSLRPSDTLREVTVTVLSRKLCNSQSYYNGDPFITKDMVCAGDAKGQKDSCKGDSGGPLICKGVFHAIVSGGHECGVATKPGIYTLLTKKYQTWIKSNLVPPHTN
Assay: thioester hydrolysis with DTNB, used to normalise enzyme units
Format: biochemical
Settings: Tris-HCl pH 8.5, 37 °C

NCCCC[C@H](NC(=O)OCc1ccccc1)C(=O)SCc1ccccc1 [Nα-CBZ-L-Lysine thiobenzyl ester hydrochloride]
thioester hydrolysis with DTNB, used to normalise enzyme units: activity of the different trypsin-like proteases was equated using a common substrate
